Experiments:
Format in all cases: functional
[1] = test system: OVCAR-4; test: Antiproliferative activity against human OVCAR4 cells assessed as growth inhibition at 10 uM after 48 hrs by sulforhodamine B assay relative to control; settings: OVCAR-4, 48 h, read-out: GI
[2] = test system: SF-295; test: Antiproliferative activity against human SF295 cells assessed as growth inhibition at 10 uM after 48 hrs by sulforhodamine B assay relative to control; settings: SF-295, 48 h, read-out: GI
[3] = test system: MCF7; test: Antiproliferative activity against human MCF7 cells assessed as growth inhibition at 10 uM after 48 hrs by sulforhodamine B assay relative to control; settings: MCF7, 48 h, read-out: GI
[4] = test system: NCI-H522; test: Antiproliferative activity against human NCI-H522 cells assessed as growth inhibition at 10 uM after 48 hrs by sulforhodamine B assay relative to control; settings: NCI-H522, 48 h, read-out: GI
[5] = test system: UO-31; test: Antiproliferative activity against human UO31 cells assessed as growth inhibition at 10 uM after 48 hrs by sulforhodamine B assay relative to control; settings: UO-31, 48 h, read-out: GI
[6] = test system: NCI/ADR-RES; test: Antiproliferative activity against human NCI/ADR-RES cells assessed as growth inhibition at 10 uM after 48 hrs by sulforhodamine B assay relative to control; settings: read-out: GI
[7] = test system: HCT-116; test: Antiproliferative activity against human HCT116 cells assessed as growth inhibition at 10 uM after 48 hrs by sulforhodamine B assay relative to control; settings: HCT-116, 48 h, read-out: GI
[8] = test system: UACC-62; test: Antiproliferative activity against human UACC62 cells assessed as growth inhibition at 10 uM after 48 hrs by sulforhodamine B assay relative to control; settings: UACC-62, 48 h, read-out: GI
[9] = test system: ACHN; test: Antiproliferative activity against human ACHN cells assessed as growth inhibition at 10 uM after 48 hrs by sulforhodamine B assay relative to control; settings: read-out: GI
[10] = test system: SK-MEL-5; test: Antiproliferative activity against human SK-MEL-5 cells assessed as growth inhibition at 10 uM after 48 hrs by sulforhodamine B assay relative to control; settings: SK-MEL-5, 48 h, read-out: GI
[11] = test system: LOX IMVI; test: Antiproliferative activity against human LOXIMVI cells assessed as growth inhibition at 10 uM after 48 hrs by sulforhodamine B assay relative to control; settings: read-out: GI
[12] = test system: NCI-H322M; test: Antiproliferative activity against human NCI-H322M cells assessed as growth inhibition at 10 uM after 48 hrs by sulforhodamine B assay relative to control; settings: read-out: GI
[13] = test system: SR; test: Antiproliferative activity against human SR cells assessed as growth inhibition at 10 uM after 48 hrs by sulforhodamine B assay relative to control; settings: read-out: GI
[14] = test system: MOLT-4; test: Antiproliferative activity against human MOLT4 cells assessed as growth inhibition at 10 uM after 48 hrs by sulforhodamine B assay relative to control; settings: MOLT-4, 48 h, read-out: GI
[15] = test system: HCT-15; test: Antiproliferative activity against human HCT15 cells assessed as growth inhibition at 10 uM after 48 hrs by sulforhodamine B assay relative to control; settings: HCT-15, 48 h, read-out: GI
[16] = test system: HL-60(TB); test: Antiproliferative activity against human HL-60(TB) cells assessed as growth inhibition at 10 uM after 48 hrs by sulforhodamine B assay relative to control; settings: HL-60, 48 h, read-out: GI
[17] = test system: K562; test: Antiproliferative activity against human K562 cells assessed as growth inhibition at 10 uM after 48 hrs by sulforhodamine B assay relative to control; settings: K562, 48 h, read-out: GI
[18] = test system: CAKI-1; test: Antiproliferative activity against human Caki1 cells assessed as growth inhibition at 10 uM after 48 hrs by sulforhodamine B assay relative to control; settings: CAKI-1, 48 h, read-out: GI
[19] = test system: T47D; test: Antiproliferative activity against human T47D cells assessed as growth inhibition at 10 uM after 48 hrs by sulforhodamine B assay relative to control; settings: read-out: GI
[20] = test system: MDA-MB-468; test: Antiproliferative activity against human MDA-MB-468 cells assessed as growth inhibition at 10 uM after 48 hrs by sulforhodamine B assay relative to control; settings: MDA-MB-468, 48 h, read-out: GI
[21] = test system: PC-3; test: Antiproliferative activity against human PC3 cells assessed as growth inhibition at 10 uM after 48 hrs by sulforhodamine B assay relative to control; settings: PC-3, 48 h, read-out: GI
[22] = test system: NCI-H460; test: Antiproliferative activity against human NCI-H460 cells assessed as growth inhibition at 10 uM after 48 hrs by sulforhodamine B assay relative to control; settings: NCI-H460, 48 h, read-out: GI
[23] = test system: A549; test: Antiproliferative activity against human A549/ATCC cells assessed as growth inhibition at 10 uM after 48 hrs by sulforhodamine B assay relative to control; settings: A549, 48 h, read-out: GI

Row | Structure (SMILES) | inhibition of growth at 10 µM [1] [%] | inhibition of growth at 10 µM [2] [%] | inhibition of growth at 10 µM [3] [%] | inhibition of growth at 10 µM [4] [%] | inhibition of growth at 10 µM [5] [%] | inhibition of growth at 10 µM [6] [%] | inhibition of growth at 10 µM [7] [%] | inhibition of growth at 10 µM [8] [%] | inhibition of growth at 10 µM [9] [%] | inhibition of growth at 10 µM [10] [%] | inhibition of growth at 10 µM [11] [%] | inhibition of growth at 10 µM [12] [%] | inhibition of growth at 10 µM [13] [%] | inhibition of growth at 10 µM [14] [%] | inhibition of growth at 10 µM [15] [%] | inhibition of growth at 10 µM [16] [%] | inhibition of growth at 10 µM [17] [%] | inhibition of growth at 10 µM [18] [%] | inhibition of growth at 10 µM [19] [%] | inhibition of growth at 10 µM [20] [%] | also measured
1 | CCOC(=O)C1=C(CSc2nnnn2-c2ccccc2)N(C)C(=O)NC1c1ccccc1 (stereo not drawn) | 4 | 11 | 15 | 14 | 21 | 14 | 12 | 17 | 3 | 2 | 14 | 18 | 13 | 26 | 8 | 7 | 17 | 14 | 17 | 3 | –
2 | CCOC(=O)C1=C(CSc2nc3ccccc3[nH]2)N(C)C(=O)NC1c1ccccc1 (stereo not drawn) | – | 7 | 14 | 3 | 4 | 6 | 6 | 11 | 2 | – | 11 | 12 | 1 | 14 | 7 | 6 | 10 | 2 | – | 1 | inhibition of growth at 10 µM [21]: 8%
3 | CCOC(=O)C1=C(CSC2=NCCS2)N(C)C(=O)NC1c1ccccc1 (stereo not drawn) | 16 | 10 | 19 | 19 | 21 | 15 | 10 | 27 | 17 | 4 | 16 | 27 | 40 | 19 | 28 | 10 | 24 | 24 | 37 | 11 | inhibition of growth at 10 µM [22]: 2%; inhibition of growth at 10 µM [23]: 16%
4 | CCOC(=O)C1=C(CSC(=S)N2CCN(c3ccccc3)CC2)N(C)C(=O)NC1c1ccccc1 (stereo not drawn) | 15 | 17 | 15 | 28 | 37 | 5 | 41 | 24 | 11 | 23 | 13 | 15 | 44 | 24 | 48 | 20 | 22 | 15 | 37 | 14 | inhibition of growth at 10 µM [21]: 41%; inhibition of growth at 10 µM [22]: 12%; inhibition of growth at 10 µM [23]: 27%
5 | CCOC(=O)C1=C(CSc2nnc(-c3ccccc3)o2)N(C)C(=O)NC1c1ccccc1 (stereo not drawn) | 14 | 14 | 11 | 16 | 34 | 15 | 19 | 10 | 3 | 10 | 27 | 15 | 16 | 29 | 15 | 11 | 34 | 14 | 25 | 17 | inhibition of growth at 10 µM [21]: 20%; inhibition of growth at 10 µM [23]: 5%
6 | CCOC(=O)C1=C(CSC(=S)N2CCN(c3ccc(OC)cc3)CC2)N(C)C(=O)NC1c1ccccc1 (stereo not drawn) | 29 | 15 | 30 | 37 | 55 | 13 | 57 | 42 | 21 | 51 | 33 | 17 | 63 | 49 | 60 | 32 | 47 | 26 | 59 | 21 | inhibition of growth at 10 µM [21]: 53%; inhibition of growth at 10 µM [22]: 39%; inhibition of growth at 10 µM [23]: 33%
7 | CCOC(=O)C1=C(CN2CCCC2)N(C)C(=O)NC1c1ccccc1 (stereo not drawn) | – | 9 | 13 | 4 | 8 | 3 | 2 | – | – | – | 8 | 9 | 10 | 4 | 6 | – | 1 | 9 | 1 | – | –
8 | CCOC(=O)C1=C(Cn2cc(CO)nn2)N(C)C(=O)NC1c1ccccc1 (stereo not drawn) | 3 | 4 | 12 | 5 | 7 | 4 | 5 | – | 2 | – | 7 | 9 | 2 | 11 | 6 | 2 | 10 | 8 | 1 | – | –
9 | CCOC(=O)C1=C(CSC(=S)N2CCOCC2)N(C)C(=O)NC1c1ccccc1 (stereo not drawn) | – | 9 | 14 | 7 | 9 | 6 | 6 | 16 | 7 | 1 | 12 | 18 | 12 | 5 | 7 | 4 | 83 | – | 18 | 6 | inhibition of growth at 10 µM [23]: 4%
